Assay: Dissolution of the crystalline solid in water
Type: physicochemical
Settings: weighed amount of crystalline mass dissolved in water
Description: The slurry was stirred and 50% NaOH (102.7 g) was slowly added as the flask was chilled in an ice bath to keep the temperature of the flask contents at around 75° F. Using a dropping funnel, elemental bromine (67.3 g) was dispensed at a rate of about one drop per second to the reaction medium, also with stirring and cooling to maintain a reaction temperature of 68° F. When the bromine addition was complete, the pH of the reaction medium was measured to be 1.97. A single charge of powdered trichloroisocyanuric acid (90.4% available Cl2) (33.1 g) was then delivered to the reaction medium through one of the necks of the flask. Stirring and cooling continued as normal as a fine powdery precipitate of cyanuric acid developed. After 10 minutes, 50% NaOH (11 g) was added dropwise in order to diminish the amount of bromine vapors that were fuming from the reaction medium. The cyanuric acid precipitate was then removed by vacuum filtration. […] The supernatant liquid above the crystals analyzed as 22.7% as Br2 (10.1% as Cl2), indicating the aqueous phase was losing active ingredient at the expense of crystal growth. […]

## O.O=S(=O)([O-])NBr.[Na+] [hydrated sodium N-bromosulfamate]
  dissolution in water: dissolved rapidly and completely
